Test results reported in patent US4125615A, “2-[4-(P-Aminobenzyl)-1-piperazinyl]-8-ethyl-5,8-dihydro-5-oxopyrido[2,3-d]p y” (priority 1976, dated 1978).
Converted amounts (≈) assume the structure as drawn. Read-outs that look alike come from different tables or passages of the source.

Tests used:
Escherichia coli K-12 = test: In vitro antibacterial activity (MIC), Escherichia coli K-12; assay type: cell-based
Method: (§1) (1) In vitro antibacterial activity against 9 strains of bacteria (Gram-positive bacteria: 4 strains, Gram-negative bacteria: 5 strains)
(§2) The test compounds were dissolved in distilled water at a concentration of 1 mg/ml with equimolar NaOH. Then graded concentrations (300, 100, 30, 10, 3 μg/ml, etc.) were made by serial dilution with distilled water. Each solution of test compound (0.5 ml) was pipetted into 4.5 ml of medium in a tube. The media used were Brain Heart Infusion Broth, pH 7.4, for Streptococcus and nutrient broth [10 g of Polypepton, 10 g of Meat Extract, and 2.5 g of NaCl in 1 liter of distilled water], pH 7.0, for the other bacteria. One drop of a bacterial suspension freshly cultured and diluted so as to contain 10 to 100 minimal growing units in the medium was inoculated into the tube. The tubes were incubated at 37° C. for 48 hours. The minimal inhibitor concentration (MIC) was defined as the lowest concentration in which no visible growth of the bacteria was detected.

[1] = test system: Streptococcus pyogenes A65; test: In vivo efficacy against the intraperitoneal infection of mice by Streptococcus pyogenes A65; details: A65, 336 h, male ddY mice, ip infection 4 LD50, oral, twice (5 minutes and 6 hours after infection), survival after 2 weeks
Method: (§3) Each group of 8 male mice (ddY strain, approximately 20 g) was intravenously infected with 6 LD50 of Staphylococcus aureus No. 50774 in 0.85% saline. The test compounds were each suspended in 0.2% carboxymethyl cellulose and administered orally in graded doses (200, 100, 50, 25, 12.5, 6.3, 3.1 mg/kg, etc.) to the infected mice twice, about 5 minutes and 6 hours after infection. Survival rates were determined after 2 weeks and the ED50 was calculated in accordance with Probit method.
(3) In vivo efficacy against the intraperitoneal infection of mice by Streptococcus pyogenes A65
Each group of 8 male mice (ddY strain, approximately 20 g) was intraperitoneally infected with 4 LD50 of Streptococcus pyogenes A65 suspended in Brain Heart Infusion Broth. The subsequent procedures were the same as those described in (2).

Escherichia coli P-5101 [2] = test: In vitro antibacterial activity (MIC), Escherichia coli P-5101; assay type: cell-based
Method: as §1, §2

[3] = test system: Staphylococcus aureus No. 50774; test: In vivo efficacy against the intravenous infection of mice by Staphylococcus aureus No. 50774; details: NO.50774, 336 h, male ddY mice, iv infection 6 LD50, oral, twice (5 minutes and 6 hours after infection), survival after 2 weeks
Method: (2) in vivo efficacy against the intravenous infection of mice by Staphylococcus aureus No. 50774
as §3

Staphylococcus aureus [4] = details: compounds of U.S. Pat. Nos. 3,887,557 and 3,950,338; cited from earlier work
[5] = test system: Staphylococcus aureus No. 10; test: In vitro antibacterial activity (MIC), Staphylococcus aureus No. 10; assay type: cell-based
Method: as §1, §2

Staphylococcus aureus [6] = details: compounds of U.S. Pat. Nos. 3,887,557 and 3,950,338; cited from earlier work; remark: listed apart in the source
[7] = test system: Streptococcus pyogenes A65; test: In vitro antibacterial activity (MIC), Streptococcus pyogenes A65; assay type: cell-based; details: Brain Heart Infusion Broth pH 7.4, 37° C., 48 hours
Method: as §1, §2

Proteus vulgaris OX-19 = test: In vitro antibacterial activity (MIC), Proteus vulgaris OX-19; assay type: cell-based
Method: as §1, §2

[8] = test system: Staphylococcus aureus No. 50774; test: In vitro antibacterial activity (MIC), Staphylococcus aureus No. 50774; assay type: cell-based
Method: as §1, §2

Shigella sonnei EW33 = test: In vitro antibacterial activity (MIC), Shigella sonnei EW33; assay type: cell-based; details: nutrient broth pH 7.0, 37° C., 48 hours
Method: as §1, §2

[9] = test system: Staphylococcus aureus Terajima; test: In vitro antibacterial activity (MIC), Staphylococcus aureus Terajima; assay type: cell-based
Method: as §1, §2

[10] = test system: Salmonella typhimurium S-9; test: In vitro antibacterial activity (MIC), Salmonella typhimurium S-9; assay type: cell-based; details: Salmonella enterica
Method: as §1, §2

[11] = test system: Gram-positive and Gram-negative bacteria; test: Antibacterial activity against Gram-positive and Gram-negative bacteria (summary statement); details: in words
Escherichia coli P-5101 [12] = test: In vivo efficacy against the intraperitoneal infection of mice by Escherichia coli p-5101; details: P5101, 336 h, male ddY mice, ip infection 9 LD50, 4% gastric mucin, oral, twice (5 minutes and 6 hours after infection), survival after 2 weeks
Method: as §3
(4) in vivo efficacy against the intraperitoneal infection of mice by Escherichia coli p-5101
Each group of 8 male mice (ddY strain, approximately 20 g) was intraperitoneally infected with 9 LD50 of Escherichia coli p-5101 suspended in Trypto-Soy Broth supplemented with 4% gastric mucin. The subsequent procedures were the same as those described in (2).

in vivo = details: mouse, in vivo, female ddY mice, Behrens-Kaerber method
Text: (§4) (5) acute toxicity in mice
(§5) Female ddY strain mice, weighing 25 to 33 g, were used. Test compounds were suspended in 0.2% carboxymethyl cellulose for oral administration, and dissolved in NaOH solution (final pH 8.8-9.2) for intravenous administration.

mice = test: in vivo
Text: as §4, §5

Staphylococcus aureus [13] = details: Antimicrob. Agents Chemother.; cited from earlier work
[14] = Escherichia coli, K12, 48 h, pH 7
[15] = P5101, Escherichia coli P-5101, nutrient broth pH 7.0, 37° C., 48 hours, read-out: MIC
[16] = Staphylococcus aureus No. 10, nutrient broth pH 7.0, 37° C., 48 hours, read-out: MIC
[17] = OX19, Proteus vulgaris OX-19, nutrient broth pH 7.0, 37° C., 48 hours, read-out: MIC
[18] = Staphylococcus aureus, NO.50774, 48 h, pH 7
[19] = Staphylococcus aureus Terajima, nutrient broth pH 7.0, 37° C., 48 hours, read-out: MIC
[20] = K12, Escherichia coli K-12, nutrient broth pH 7.0, 37° C., 48 hours, read-out: MIC
[21] = Escherichia coli, P5101, 48 h, pH 7
[22] = Proteus vulgaris, OX19, 48 h, pH 7
[23] = oral, 7 days, read-out: LD50 (oral administration)
[24] = Staphylococcus aureus No. 50774, nutrient broth pH 7.0, 37° C., 48 hours, read-out: MIC

| Structure (SMILES) | MIC (Escherichia coli K-12; [14]) [µg/mL] | ED50 [1] [mg/kg] | MIC (Escherichia coli P-5101 [2]; [15]) [µg/mL] | ED50 [3] [mg/kg] | in vitro activities against Staphylococcus aureus (Staphylococcus aureus [4]) | MIC [5, 16] [µg/mL] | in vivo activities against Staphylococcus aureus (Staphylococcus aureus [6]) | MIC [7] [µg/mL] | MIC (Proteus vulgaris OX-19; [17]) [µg/mL] | MIC [8, 18] [µg/mL] | MIC (Shigella sonnei EW33) [µg/mL] | MIC [9, 19] [µg/mL] | MIC ([10]; TYPHIMURIUM, 48 h, pH 7) [µg/mL] | MIC (Escherichia coli K-12; [20]) [µg/mL] | ED50 (Escherichia coli P-5101 [12]) [mg/kg] | MIC (Escherichia coli P-5101 [2]; [21]) [µg/mL] | MIC (Proteus vulgaris OX-19; [22]) [µg/mL] | LD50 at 168 h (in vivo; [23]) [mg/kg] | effect on systemic infection by Staphylococcus aureus (Staphylococcus aureus [13]) | MIC [8, 24] [µg/mL] | other results |
| --- | --- | --- | --- | --- | --- | --- | --- | --- | --- | --- | --- | --- | --- | --- | --- | --- | --- | --- | --- | --- | --- |
| CCn1cc(C(=O)O)c(=O)c2cnc(N3CCN(Cc4ccc(OC)cc4)CC3)nc21 [Compound 2, 2-[4-(p-Methoxybenzyl)-1-piperazinyl]-8-ethyl-5,8-dihydro-5-oxopyrido[2,3-d]pyrimidine-6-carboxylic acid] | 3 (≈ 7.08 µM) | > 100 | 10 (≈ 23.6 µM) | 54.5 | relatively strong | 10 (≈ 23.6 µM) | weak | 100 (≈ 236 µM) | 10 (≈ 23.6 µM) | 3 (≈ 7.08 µM) | 3 (≈ 7.08 µM) | 10 (≈ 23.6 µM) | 3 (≈ 7.08 µM) |  |  |  |  |  |  |  |  |
| CCn1cc(C(=O)O)c(=O)c2cnc(N3CCN(Cc4ccc(Cl)cc4)CC3)nc21 [Compound 3, 2-[4-(p-Chlorobenzyl)-1-piperazinyl]-8-ethyl-5,8-dihydro-5-oxopyrido[2,3-d]pyrimidine-6-carboxylic acid] |  | > 100 | 30 (≈ 70.1 µM) | > 100 | relatively strong | 10 (≈ 23.4 µM) | weak | 30 (≈ 70.1 µM) | 10 (≈ 23.4 µM) | 3 (≈ 7.01 µM) | 3 (≈ 7.01 µM) | 10 (≈ 23.4 µM) |  | 10 (≈ 23.4 µM) |  |  |  |  |  |  | MIC ([10]; Salmonella typhimurium S-9, nutrient broth pH 7.0, 37° C., 48 hours, read-out: MIC): 10 µg/mL (≈ 23.4 µM) |
| CCn1cc(C(=O)O)c(=O)c2cnc(N3CCN(Cc4ccc(N)cc4)CC3)nc21 [Compound AT-1826, 2-[4-(p-Aminobenzyl)-1-piperazinyl]-8-ethyl-5,8-dihydro-5-oxopyrido[2,3-d]pyrimidine-6-carboxylic acid] | 1 (≈ 2.45 µM) | 47.7 |  | 7.2 |  |  |  | 30 (≈ 73.4 µM) |  | 1 (≈ 2.45 µM) | 1 (≈ 2.45 µM) |  | 3 (≈ 7.34 µM) |  | 35.6 | 3 (≈ 7.34 µM) | 3 (≈ 7.34 µM) | > 2000 |  |  | antibacterial activities against Gram-positive and Gram-negative bacteria [11]: excellent antibacterial activities; MIC ([5]; Staphylococcus aureus, NO.10, 48 h, pH 7): 3 µg/mL (≈ 7.34 µM); LD50 at 168 h (in vivo; iv, NaOH solution final pH 8.8-9.2, 7 days, read-out: LD50 (intravenous administration)): 354 mg/kg; toxicity (mice; in words): low toxicity; MIC ([9]; Staphylococcus aureus, 48 h, pH 7): 3 µg/mL (≈ 7.34 µM) |
| CCn1cc(C(=O)O)c(=O)c2cnc(N3CCCC3)nc21 [Compound PA, 2-pyrrolidino-8-ethyl-5,8-dihydro-5-oxopyrido [2,3-d]pyrimidine-6-carboxylic acid] |  | > 100 | 10 (≈ 34.7 µM) | > 200 |  | 10 (≈ 34.7 µM) |  | 300 (≈ 1040 µM) | 1 (≈ 3.47 µM) |  | 3 (≈ 10.4 µM) | 10 (≈ 34.7 µM) | 3 (≈ 10.4 µM) | 1 (≈ 3.47 µM) | 36.6 |  |  | > 2000 | only extremely weak effect | 10 (≈ 34.7 µM) | LD50 (intravenous administration) (mice; female ddY mice, iv, NaOH solution final pH 8.8-9.2, 7 days, Behrens-Kaerber method): 268 mg/kg |
| CCn1cc(C(=O)O)c(=O)c2cnc(N3CCNCC3)nc21 [Compound PPA, 2-(1-piperazinyl)-8-ethyl-5,8-dihydro-5-oxopyrido [2,3-d]pyrimidine-6-carboxylic acid] | 1 (≈ 3.3 µM) | > 100 |  | 238 |  | 10 (≈ 33 µM) |  | 100 (≈ 330 µM) |  |  | 1 (≈ 3.3 µM) | 30 (≈ 98.9 µM) | 1 (≈ 3.3 µM) |  | 21.2 | 1 (≈ 3.3 µM) | 3 (≈ 9.89 µM) |  | only extremely weak effect | 10 (≈ 33 µM) |  |
| CCn1cc(C(=O)O)c(=O)c2cnc(N3CCN(Cc4ccccc4)CC3)nc21 [Compound 1, 2-(4-Benzyl-1-piperazinyl)-8-ethyl-5,8-dihydro-5-oxopyrido[2,3-d]-pyrimidine-6-carboxylic acid] | 3 (≈ 7.62 µM) | > 100 | 10 (≈ 25.4 µM) | ~50 | relatively strong | 10 (≈ 25.4 µM) | weak | 100 (≈ 254 µM) |  | 3 (≈ 7.62 µM) | 3 (≈ 7.62 µM) | 10 (≈ 25.4 µM) | 3 (≈ 7.62 µM) |  |  |  | 3 (≈ 7.62 µM) |  |  |  |  |
